Laboratory results reported in US20020042079A1, “METHODS AND AGENTS FOR MEASURING AND CONTROLLING MULTIDRUG RESISTANCE” (priority 1994, published 2002).
Entries after “also recorded” stand apart in the source; their conditions may differ.

How the values were obtained:
MCF-7/ADR cells [1] = assay: Subcellular distribution of Adriamycin fluorescence (confocal microscopy); format: cell-based, human; settings: MCF-7/ADR, Monensin 5 μM, Bafilomycin A1 500 nM, concanomycin 100 nM, Tamoxifen 10 μM (50 μM in Example 3), verapamil 10 μM, cyclosporin 5 μM
Protocol: Adriamycin can be excited between 350 nm-550 nm and emits between 400 nm-700 nm.
Labeling of Cells with Adriamycin: Cells were loaded with Adriamycin (10 μM) added to the perfusion medium. […] For epi-fluorescence, the cells were excited with 450-490 nm filter and emission was monitored with a 510 nm longpass filter.

MCF-7/ADR cells [2] = assay: Acridine orange labeling of acidic compartments (confocal microscopy); format: cell-based, human; settings: for red-orange acridine orange fluorescence of cytoplasmic organelles after addition of agent: MCF-7/ADR, 30 minutes, Monensin 5 μM, Bafilomycin A1 500 nM, concanomycin 100 nM, Tamoxifen 5 or 10 μM, verapamil 10 μM, cyclosporin A 10 μM
Protocol: Confocal fluorescence imaging of intracellular pH and acidic compartments: Acridine orange (2 μg/ml media; 4 mg/ml stock in water) was added directly to the chambers and the cells were incubated with the dye at 37° C. for 30 minutes. Cells in the presence of acridine orange were then examined at room temperature with an Insight Bilateral Laser Scanning Confocal Microscope (Meridian Instruments, Okemos, Mich.). […] Optical sections of the fluorescent sample were recorded at 0.5 micron intervals. […] The acetoxymethylester derivative of SNAFL-calcein (15 μg/ml) (Molecular Probes, Eugene, Oreg.) (a radiometric fluorescent probe for pH) was added to both MCF-7 and MCF-7adr cells. The ester linked fluorescent probe enters the cell passively where the esters are hydrolyzed by esterases located in the cytoplasm and intracellular vesicles. The SNAFL-calcein is then ionically trapped within the cytoplasm and vesicular compartments. […] These images were then compared to standard curves that were obtained in the following manner. […] Cells treated with monensin were exposed to the drug (10 μg/ml of media) for 30 minutes at 37° C. prior to labeling with SNAFL-calcein as described above. All cells were examined at room temperature.
The green and red emissions were collected using two photomultiplier tubes. […] Green emission was next passed through a 530 nm/30 nm bandpass filter and collected by the on-axis photomultiplier tube. Red emission was passed through a 610 nm longpass filter and collected by the 90° side photomultiplier tube.
Optical sections of the fluorescent samples were recorded at 0.5 micron intervals with a 60×oil immersion objective.

MCF-7/ADR cells [3] = assay: Cell viability assay of Adriamycin sensitivity (Hoechst 33258 DNA content); settings: for effect on sensitivity of drug-resistant cells to Adriamycin: MCF-7/ADR (MCF-7adr) cells, agent co-incubated with adriamycin for 6 hours
Protocol: After 6 hours, the media was removed, the cells rinsed, and then fed with fresh media not containing drugs. […] Media was aspirated and the wells rinsed with Hanks Balanced Salt Solution (HBSS, phenol red free). The cells were sonicated in hypotonic media (0.1×HBSS) for 30 seconds. […] Calf thymus DNA was used for calibration.
Cell viability assays: The media was removed 60 hr. after plating the cells and replaced with fresh media supplemented with various concentrations of adriamycin (Calbiochem, CA) and monensin (solubilized in DMF 0.1%) (Sigma, St. Louis). After 6 hr the media was removed, the cells rinsed, and then fed with fresh media not containing drugs. […] Media was aspirated and the wells rinsed with Hanks Balanced Salt Solution (HBSS, phenol red free). The cells were sonicated in hypotonic media (0.1×HBSS) for 30 seconds. […] Calf thymus DNA was used for calibration.
Cell Viability Assays: Cell viability was assayed by plating cells at ˜1000 cells/well in 24 well plates (Falcon) in DME. […] The cells were fed daily for three days and then cell viability was quantified with two independent techniques: an assay of total DNA and an assay of volume of viable cells. […] Calf thymus DNA was used for calibration.
After three days cell viability was assayed.

[4] = system: isolated microsomes of MCF-7/ADR cells; assay: In vitro acidification of total microsomal preparation (acridine orange quenching)
Protocol: Acidification of Cellular Microsomes: The acidification of cellular microsomes was assayed spectrophotometrically. Two different approaches were used for assaying acidification: Acidification of the total microsomal preparation using quenching of acridine orange and acidification of the recycling endosomes by monitoring the fluorescence from a microsomal preparation from cells that had previously endocytosed FITC-transferrin.
The homogenate was centrifuged twice for 10 minutes at 3000 g to remove unbroken cells and nuclei. The supernatant was layered over 20 ml of 0.5 M sucrose (20 mM HERES (pH 7.4), 1 mM DTT, 1 mM EDTA, 1×protease inhibitor mix) and 1 ml of 2 M sucrose and centrifuged for one hour at 100,000 g (Beckman Ti60 Rotor). Microsomes are collected at the 0.5 M and 2 M interface.
Acidic vesicles accumulate acridine orange to high concentrations resulting in the self quenching of the dye. This accumulation causes depletion of the acridine orange from the extra-vesicular space, and a decrease of the overall fluorescence of the sample. […] The sample was allowed to equilibrate by stirring for 30 minutes at 25° C. After 5 minutes of recording to establish baseline, 1 mM Tris-ATP was added to begin acidification (100 mM stock, titrated to pH 7.4 with 1 M Tris-base before use).

MCF-7/ADR cells [5] = assay: Lysosomal acidification by DAMP immuno-electron microscopy; format: cell-based, human; set-up: dose or concentration left out as unconfirmed; settings: MCF-7/ADR cells treated prior to DAMP
Protocol: pH in the lysosomes: The pH in the lysosomes was assayed both with light and electron microscopy. Light microscopy: […] Cell Biol., 105:2723-2733 (1987)]. The pH was calibrated as described above. Electron microscopy: The cells were incubated with the weak base DAMP, fixed, probed with an mouse antibody to DNP (cross-reacts with DAMP) and visualized with gold-conjugated anti-mouse antibodies. […] Then DAMP was added to a final concentration of at 70 μM and the cells were incubated for another 45 minutes. The medium was replaced with phosphate buffered saline (PBS), pH 7.4, with 4% paraformaldehyde and 0.75% gluteraldehyde. […] They were then stained and visualized under the electron microscope.

Row | SMILES | Adriamycin distribution after addition of agent (MCF-7/ADR cells [1]) | Adriamycin distribution after addition of agent (MCF-7/ADR cells [1]; listed as monensin) | red-orange acridine orange fluorescence of cytoplasmic organelles after addition of agent (MCF-7/ADR cells [2]) | red-orange acridine orange fluorescence of cytoplasmic organelles after addition of agent (MCF-7/ADR cells [2]; listed as monensin) | effect on sensitivity of drug-resistant cells to Adriamycin (MCF-7/ADR cells [3]) | acidification of pre-treated microsomes ([4]; Tamoxifen 8 μM, Bafilomycin A1 10 nM, monensin concentration not given) | rate of dissipation of the pre-existing pH gradient ([4]; added 10 minutes after ATP, Bafilomycin A1 100 nM, compared with tamoxifen) | average density of gold particles (anti-DNP labeling of DAMP) per lysosomal area (MCF-7/ADR cells [5]) | Adriamycin distribution after addition of agent (MCF-7/ADR cells [1]; listed as tamoxifen) | red-orange acridine orange fluorescence of cytoplasmic organelles after addition of agent (MCF-7/ADR cells [2]; listed as tamoxifen) | acridine orange staining of acidic vesicles after treatment (MCF-7/ADR cells [2]; MCF-7adr (Examples 2, 3), nigericin 7.5 μM, tamoxifen 50 μM) | cell death (MCF-7/ADR cells [3]; 1 μM Adriamycin in the presence of 5 μM Tamoxifen, 6 hours exposure, assayed after three days) | cell viability in the absence of Adriamycin (MCF-7/ADR cells [3]; 5 μM Tamoxifen alone) | effect on sensitivity of drug-resistant cells to Adriamycin (MCF-7/ADR cells [3]; listed as tamoxifen) | time to almost complete dissipation of the pre-existing pH gradient ([4]; 8 μM Tamoxifen added 10 minutes after Tris-ATP)
1 | CC[C@@]1([C@@H]2O[C@@H]([C@H]3O[C@@](O)(CO)[C@H](C)C[C@@H]3C)C[C@@H]2C)CC[C@H]([C@]2(C)CC[C@]3(C[C@H](O)[C@@H](C)[C@@H]([C@@H](C)[C@@H](OC)[C@H](C)C(=O)O)O3)O2)O1 [Monensin] | Adriamycin is found to accumulate within the nucleus | redistributed Adriamycin to the nucleoplasm | loss of the red-orange fluorescence | did not exhibit the red spectral shift within the vesicles | increased the drug sensitivity of the MCF-7adr cells to the level observed for drug-sensitive cells | inhibited acidification | significantly faster than tamoxifen | zero | – | – | – | – | – | – | –
2 | CC/C(=C(\c1ccccc1)c1ccc(OCCN(C)C)cc1)c1ccccc1 [Tamoxifen] | the concentration of Adriamycin in the nucleus was substantially increased | – | loss of the red-orange cytoplasmic fluorescence | – | substantially increased the sensitivity of the cells to Adriamycin | – | – | 2.0 /μm^2 | shifts the adriamycin distribution to that observed in the MCF-7 cells; also recorded: shift of Adriamycin from punctate perinuclear compartments | steady decrease of the red acridine orange fluorescence | loss of acridine orange staining within the pericentriolar region | 95% | no decrease in viability; also recorded: little effect on cell viability | significantly enhanced sensitivity to adriamycin | ≤ 5 minutes
